Source: ChEMBL document CHEMBL6134818, “Development of 3-arylaminothiophenic-2-carboxylic acid derivatives as new FTO inhibitors showing potent antileukemia activities” (Eur J Med Chem, 2025)

How the values were obtained:
[1] = target: Alpha-ketoglutarate-dependent dioxygenase FTO (Homo sapiens, UniProt Q9C0B1); test: Inhibition of N-terminal truncated FTO demethylation (unknown origin) using 5'-ATTGCCATTCTCGATAGG(dm6A)TCCGGTCAAACCTAGACGAA-3' ssDNA template incubated for 2 hrs by PAGE-based assay
Chain of Alpha-ketoglutarate-dependent dioxygenase FTO (Q9C0B1 whole entry, the tested form may be a part): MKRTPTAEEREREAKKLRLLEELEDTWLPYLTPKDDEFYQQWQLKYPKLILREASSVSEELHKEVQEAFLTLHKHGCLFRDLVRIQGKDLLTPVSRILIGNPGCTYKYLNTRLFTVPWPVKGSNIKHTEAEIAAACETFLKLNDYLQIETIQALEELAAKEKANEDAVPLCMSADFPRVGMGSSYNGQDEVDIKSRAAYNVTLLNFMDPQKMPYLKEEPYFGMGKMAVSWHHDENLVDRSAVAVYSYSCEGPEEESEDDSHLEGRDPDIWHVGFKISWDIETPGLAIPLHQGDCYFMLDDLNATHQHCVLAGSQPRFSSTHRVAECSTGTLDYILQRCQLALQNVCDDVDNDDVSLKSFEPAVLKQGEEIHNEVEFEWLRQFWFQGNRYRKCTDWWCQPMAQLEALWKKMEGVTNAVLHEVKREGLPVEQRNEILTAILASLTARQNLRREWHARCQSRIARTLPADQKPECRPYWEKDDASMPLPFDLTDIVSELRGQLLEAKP

[2] = system: MOLM-13; test: Anti-proliferative activity against human MOLM-13 cells assessed as inhibition of cell viability incubated for 72 hrs by CCK8 assay; assay type: functional, cell-based; details: MOLM-13, 72 h
[3] = system: NB-4; test: Anti-proliferative activity against human NB4 cells assessed as inhibition of cell viability incubated for 72 hrs by CCK8 assay; assay type: functional, cell-based; details: NB-4, 72 h

IC50 [1] | IC50 [2] | SMILES | IC50 [3]
270 nM |  | Cc1n[nH]c(C)c1-c1cc(C2CC2)c(Nc2ccsc2C(=O)NC#N)c(C2CC2)c1 | 
 | 300 nM | Cc1n[nH]c(C)c1-c1cc(C2CC2)c(Nc2ccsc2C(=O)NO)c(C2CC2)c1 | 300 nM
680 nM |  | Cc1n[nH]c(C)c1-c1cc(Cl)c(Nc2ccsc2C(=O)O)c(Cl)c1 | 
